# Test results published in patent publication US20250012802A1, “SYSTEMS AND METHODS FOR PREDICTING RESPONSE TO ORAL MINOXIDIL FOR THE TREATMENT OF ANDROGENETIC ALOPECIA” (Follea International, priority 2023, published 2025).
# Where “and” joins values, the source holds several entries; their conditions need not be identical. Equal entries are not always repeated.
# Tested on: androgenetic alopecia
# Test: clinical response to oral minoxidil for androgenetic alopecia
# Format: in vivo, human
# Design: Response: scale not given here
# Settings: for subjects who responded to oral minoxidil: 5 mg men and 1.25 mg women
# Text: Clinical trials with minoxidil for the treatment of androgenetic alopecia have shown statistically significant results for maintenance and growth of hair. […] As described herein, the assessment of hair re-growth is based on one or more of the following parameters: patient self assessment, physician assessment using a standardized scale, global photography assessment, hair diameter measurement, average hair length measurement, average hair diameter measurement, and hair weight measurements. The current inventions provide a method of using biochemical variations in minoxidil sulfotransferase activity as a drug response marker for oral and/or topical minoxidil treatment of androgenetic alopecia. Based on the minoxidil sulfotransferase activity level, the method disclosed herein allows a physician or the patient to select the appropriate treatment and dosage thereof for the treatment of androgenetic alopecia.
# In one embodiment, the test is conducted by placing a hair follicle in an assay. The hair follicle may be collected prior to minoxidil therapy, or after start of minoxidil therapy. The follicle is placed in a solution containing minoxidil. The assay is then conducted as described above, and is examined to determine whether there is a SULT1A1 response. The results are then used as a predictor for patients who will respond well to minoxidil, and who will respond better to oral minoxidil versus topical application of minoxidil. […] The first column is optical density resulting from the colorimetric testing. The second column indicates response.
# A total of 123 subjects recruited. Overall among subjects with OD<0.37 85% responded to oral minoxidil (5 mg men and 1.25 mg women). Overall among subjects with OD>0.37 43% responded to oral minoxidil (5 mg men and 1.25 mg women). This was statistically significant p=0.0088 (Fischer Exact Test). In this cohort, oral minoxidil only worked on 42% of women and 73% of men.
smiles,measurement,setting,value
Nc1cc(N2CCCCC2)nc(N)[n+]1[O-] [minoxidil],share of cohort on whom oral minoxidil worked,men,73%
same,Response,"response of the individual patient with the OD of the same line, 0/1 not defined in the patent",1 (15×) and 0 (11×)
same,subjects who responded to oral minoxidil,subjects with OD<0.37,85%
same,subjects who responded to oral minoxidil,subjects with OD>0.37,43%
same,share of cohort on whom oral minoxidil worked,women,42%
